Data as given in the supplement of paper PMC10307832.

How the values were obtained:
Assay in all cases: relative viability (nuclei count vs DMSO), 5 days (fraction); higher = more cells survive
BEN = tested on: BEN
Procedure, shortened: (§1)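 The day after seeding in 1536-well plates, lung cancer cell lines were treated by pin tool with a single drug, or with a fixed anchor-drug dose together with five library-drug doses (not always all listed) in √10 steps. After 5 days, a combined fix-and-stain solution (final 0.05% Triton X-100, 1% formaldehyde, 1 ug/ml Hoechst) was added. Nuclei counted on 4× images gave relative viability as treated counts over vehicle counts, reported as the median of duplicate plates.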

NCI-H441 = tested on: NCI-H441
Procedure, shortened: as §1

NCI-H23 = tested on: NCI-H23
Procedure, shortened: as §1

NCI-H727 = tested on: NCI-H727
Procedure, shortened: as §1

NCI-H2087 = tested on: NCI-H2087
Procedure, shortened: as §1

NCI-H2023 = tested on: NCI-H2023
Procedure, shortened: as §1

NCI-H2347 = tested on: NCI-H2347
Procedure, shortened: as §1

LOU-NH91 = tested on: LOU-NH91
Procedure, shortened: as §1

NCI-H1993 = tested on: NCI-H1993
Procedure, shortened: as §1

EMC-BAC-2 = tested on: EMC-BAC-2
Procedure, shortened: as §1

HARA = tested on: HARA
Procedure, shortened: as §1

HCC-44 = tested on: HCC-44
Procedure, shortened: as §1

NCI-H522 = tested on: NCI-H522
Procedure, shortened: as §1

NCI-H838 = tested on: NCI-H838
Procedure, shortened: as §1

NCI-H647 = tested on: NCI-H647
Procedure, shortened: as §1

NCI-H3122 = tested on: NCI-H3122
Procedure, shortened: as §1

NCI-H650 = tested on: NCI-H650
Procedure, shortened: as §1

NCI-H1395 = tested on: NCI-H1395
Procedure, shortened: as §1

NCI-H596 = tested on: NCI-H596
Procedure, shortened: as §1

NCI-H2126 = tested on: NCI-H2126
Procedure, shortened: as §1

201T = tested on: 201T
Procedure, shortened: as §1

LCLC-103H = tested on: LCLC-103H
Procedure, shortened: as §1

SMILES: O=c1cc(N2CCOCC2)oc2c(-c3cccc4c3sc3ccccc34)cccc12 + CCNC(=O)c1noc(-c2cc(C(C)C)c(O)cc2O)c1-c1ccc(CN2CCOCC2)cc1 [Luminespib] (partner 0.01 µM)
- relative viability (BEN; first compound 0.01 µM): 0.298
- relative viability (BEN; first compound 0.03162 µM): 0.359
- relative viability (BEN; first compound 0.1 µM): 0.236
- relative viability (BEN; first compound 0.3162 µM): 0.497
- relative viability (BEN; first compound 1 µM): 0.318
- relative viability (NCI-H441; first compound 0.01 µM): 0.334
- relative viability (NCI-H441; first compound 0.03162 µM): 0.406
- relative viability (NCI-H441; first compound 0.1 µM): 0.357
- relative viability (NCI-H441; first compound 0.3162 µM): 0.417
- relative viability (NCI-H441; first compound 1 µM): 0.454
- relative viability (NCI-H23; first compound 0.01 µM): 0.194
- relative viability (NCI-H23; first compound 0.03162 µM): 0.194
- relative viability (NCI-H23; first compound 0.3162 µM): 0.239
- relative viability (NCI-H23; first compound 1 µM): 0.206
- relative viability (NCI-H727; first compound 0.01 µM): 0.324
- relative viability (NCI-H727; first compound 0.03162 µM): 0.399
- relative viability (NCI-H727; first compound 0.1 µM): 0.375
- relative viability (NCI-H727; first compound 0.3162 µM): 0.356
- relative viability (NCI-H727; first compound 1 µM): 0.416
- relative viability (NCI-H2087; first compound 0.01 µM): 0.148
- relative viability (NCI-H2087; first compound 0.03162 µM): 0.146
- relative viability (NCI-H2087; first compound 0.1 µM): 0.173
- relative viability (NCI-H2087; first compound 0.3162 µM): 0.237
- relative viability (NCI-H2087; first compound 1 µM): 0.169
- relative viability (NCI-H2023; first compound 0.01 µM): 0.672
- relative viability (NCI-H2023; first compound 0.03162 µM): 0.72
- relative viability (NCI-H2023; first compound 0.1 µM): 0.793
- relative viability (NCI-H2023; first compound 0.3162 µM): 0.859
- relative viability (NCI-H2023; first compound 1 µM): 0.588
- relative viability (NCI-H2347; first compound 0.01 µM): 0.571
- relative viability (NCI-H2347; first compound 0.03162 µM): 0.383
- relative viability (NCI-H2347; first compound 0.1 µM): 0.641
- relative viability (NCI-H2347; first compound 0.3162 µM): 0.409
- relative viability (NCI-H2347; first compound 1 µM): 0.323
- relative viability (LOU-NH91; first compound 0.01 µM): 0.352
- relative viability (LOU-NH91; first compound 0.03162 µM): 0.318
- relative viability (LOU-NH91; first compound 0.1 µM): 0.33
- relative viability (LOU-NH91; first compound 0.3162 µM): 0.373
- relative viability (LOU-NH91; first compound 1 µM): 0.36
- relative viability (NCI-H1993; first compound 0.01 µM): 0.585
- relative viability (NCI-H1993; first compound 0.03162 µM): 0.891
- relative viability (NCI-H1993; first compound 0.1 µM): 0.984
- relative viability (NCI-H1993; first compound 0.3162 µM): 0.697
- relative viability (NCI-H1993; first compound 1 µM): 0.813
- relative viability (EMC-BAC-2; first compound 0.01 µM): 1.21
- relative viability (EMC-BAC-2; first compound 0.03162 µM): 1.24
- relative viability (EMC-BAC-2; first compound 0.1 µM): 1.14
- relative viability (EMC-BAC-2; first compound 0.3162 µM): 1.07
- relative viability (EMC-BAC-2; first compound 1 µM): 1.11
- relative viability (HARA; first compound 0.01 µM): 0.682
- relative viability (HARA; first compound 0.03162 µM): 0.679
- relative viability (HARA; first compound 0.1 µM): 0.806
- relative viability (HARA; first compound 0.3162 µM): 0.771
- relative viability (HARA; first compound 1 µM): 0.905
- relative viability (HCC-44; first compound 0.01 µM): 1.02
- relative viability (HCC-44; first compound 0.03162 µM): 1.01
- relative viability (HCC-44; first compound 0.1 µM): 1.31
- relative viability (HCC-44; first compound 0.3162 µM): 0.998
- relative viability (HCC-44; first compound 1 µM): 1.11
- relative viability (NCI-H522; first compound 0.01 µM): 1.23
- relative viability (NCI-H522; first compound 0.03162 µM): 1.37
- relative viability (NCI-H522; first compound 0.1 µM): 0.915
- relative viability (NCI-H522; first compound 0.3162 µM): 1.06
- relative viability (NCI-H522; first compound 1 µM): 1.14
- relative viability (NCI-H838; first compound 0.01 µM): 0.347
- relative viability (NCI-H838; first compound 0.03162 µM): 0.362
- relative viability (NCI-H838; first compound 0.1 µM): 0.406
- relative viability (NCI-H838; first compound 0.3162 µM): 0.294
- relative viability (NCI-H838; first compound 1 µM): 0.287
- relative viability (NCI-H647; first compound 0.01 µM): 0.132
- relative viability (NCI-H647; first compound 0.03162 µM): 0.115
- relative viability (NCI-H647; first compound 0.1 µM): 0.101
- relative viability (NCI-H647; first compound 0.3162 µM): 0.259
- relative viability (NCI-H647; first compound 1 µM): 0.209
- relative viability (NCI-H3122; first compound 0.01 µM): 0.073
- relative viability (NCI-H3122; first compound 0.03162 µM): 0.101
- relative viability (NCI-H3122; first compound 0.1 µM): 0.0916
- relative viability (NCI-H3122; first compound 0.3162 µM): 0.0864
- relative viability (NCI-H3122; first compound 1 µM): 0.0779
- relative viability (NCI-H650; first compound 0.03162 µM): 0.846
- relative viability (NCI-H650; first compound 0.1 µM): 0.638
- relative viability (NCI-H650; first compound 0.3162 µM): 0.917
- relative viability (NCI-H650; first compound 1 µM): 0.813
- relative viability (NCI-H1395; first compound 0.01 µM): 0.726
- relative viability (NCI-H1395; first compound 0.03162 µM): 0.75
- relative viability (NCI-H1395; first compound 0.1 µM): 0.683
- relative viability (NCI-H1395; first compound 0.3162 µM): 0.622
- relative viability (NCI-H1395; first compound 1 µM): 0.532
- relative viability (NCI-H596; first compound 0.01 µM): 1.05
- relative viability (NCI-H596; first compound 0.03162 µM): 0.917
- relative viability (NCI-H596; first compound 0.1 µM): 0.877
- relative viability (NCI-H596; first compound 0.3162 µM): 1.14
- relative viability (NCI-H596; first compound 1 µM): 1.01
- relative viability (NCI-H2126; first compound 0.01 µM): 0.923
- relative viability (NCI-H2126; first compound 0.03162 µM): 0.893
- relative viability (NCI-H2126; first compound 0.1 µM): 0.922
- relative viability (NCI-H2126; first compound 0.3162 µM): 0.93
- relative viability (NCI-H2126; first compound 1 µM): 0.756
- relative viability (201T; first compound 0.01 µM): 0.961
- relative viability (201T; first compound 0.03162 µM): 1.1
- relative viability (201T; first compound 0.1 µM): 1.03
- relative viability (201T; first compound 0.3162 µM): 1.02
- relative viability (201T; first compound 1 µM): 0.996
- relative viability (LCLC-103H; first compound 0.01 µM): 0.912
- relative viability (LCLC-103H; first compound 0.03162 µM): 1.01
- relative viability (LCLC-103H; first compound 0.1 µM): 1.02
- relative viability (LCLC-103H; first compound 0.3162 µM): 0.898
- relative viability (LCLC-103H; first compound 1 µM): 0.925
